The target of one assay is RON (Homo sapiens, UniProt Q04912). The assay is described as follows: Test B: HTRF RON test in 96-well format. The class given is biochemical. In outline: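 RON 5 nM pre-incubated 30 min at RT with compound (0.17 nM–10 μM final, 3% DMSO) in MOPS 10 mM pH 7, DTT, Tween 20. Reaction with biotinylated poly-(GAT) 1 μg/ml, ATP 10 μM, MgCl2 5 mM, 30 min RT. Eu-anti-pTyr/streptavidin-XL665 HTRF, 665/620 ratio gives % inhibition, IC50.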
A general note: In TR-FRET formats the signal depends on donor and acceptor labels being close together.

The next assay concerns the target T1, MET (Homo sapiens, UniProt P08581).
T1 construct: endogenous in cells; host or cells: MKN45 cells
The assay is described as follows: Test C: inhibition of the autophosphorylation of MET, ELISA technique (pppY1230, 1234, 1235), MKN45 cells. The class given is cell-based. In short, it runs like this: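 MKN45 cells adhered 24 h, then treated 1 h with compound at 6 concentrations in duplicate, final range 10000 to 30 nM. Lysates assayed by phospho-MET (pY1230/1234/1235) sandwich ELISA with HRP chromogen read at 450 nm.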
Background: In an ELISA, binding on a coated surface is turned into a signal by an enzyme label.

The test system of the next assay is MKN45 cells. The assay is described as follows: Test D: cellular proliferation by 14C-thymidine pulse, MKN45 cells. Conditions: cell line not stated (HCT116 or MKN45). The class given is cell-based. In outline:
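MKN45 cells (7500/well, RPMI + 10% foetal calf serum) treated with 10 concentrations, 10000 to 0.3 nM in 3-fold steps, duplicate. 14C-thymidine (0.1 μCi/well) added at 72 h; incorporation counted after 24 h pulse, 96 h total treatment.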

The mark [1] stands for this setting: Homo sapiens, MKN-45, cellular proliferation by 14C-thymidine pulse.

A value given as a limit tells only on which side of the number the result lay.

As a reminder, the IC50 is the concentration that inhibits the measured activity by half.

T1 sequence (P08581 25-1390): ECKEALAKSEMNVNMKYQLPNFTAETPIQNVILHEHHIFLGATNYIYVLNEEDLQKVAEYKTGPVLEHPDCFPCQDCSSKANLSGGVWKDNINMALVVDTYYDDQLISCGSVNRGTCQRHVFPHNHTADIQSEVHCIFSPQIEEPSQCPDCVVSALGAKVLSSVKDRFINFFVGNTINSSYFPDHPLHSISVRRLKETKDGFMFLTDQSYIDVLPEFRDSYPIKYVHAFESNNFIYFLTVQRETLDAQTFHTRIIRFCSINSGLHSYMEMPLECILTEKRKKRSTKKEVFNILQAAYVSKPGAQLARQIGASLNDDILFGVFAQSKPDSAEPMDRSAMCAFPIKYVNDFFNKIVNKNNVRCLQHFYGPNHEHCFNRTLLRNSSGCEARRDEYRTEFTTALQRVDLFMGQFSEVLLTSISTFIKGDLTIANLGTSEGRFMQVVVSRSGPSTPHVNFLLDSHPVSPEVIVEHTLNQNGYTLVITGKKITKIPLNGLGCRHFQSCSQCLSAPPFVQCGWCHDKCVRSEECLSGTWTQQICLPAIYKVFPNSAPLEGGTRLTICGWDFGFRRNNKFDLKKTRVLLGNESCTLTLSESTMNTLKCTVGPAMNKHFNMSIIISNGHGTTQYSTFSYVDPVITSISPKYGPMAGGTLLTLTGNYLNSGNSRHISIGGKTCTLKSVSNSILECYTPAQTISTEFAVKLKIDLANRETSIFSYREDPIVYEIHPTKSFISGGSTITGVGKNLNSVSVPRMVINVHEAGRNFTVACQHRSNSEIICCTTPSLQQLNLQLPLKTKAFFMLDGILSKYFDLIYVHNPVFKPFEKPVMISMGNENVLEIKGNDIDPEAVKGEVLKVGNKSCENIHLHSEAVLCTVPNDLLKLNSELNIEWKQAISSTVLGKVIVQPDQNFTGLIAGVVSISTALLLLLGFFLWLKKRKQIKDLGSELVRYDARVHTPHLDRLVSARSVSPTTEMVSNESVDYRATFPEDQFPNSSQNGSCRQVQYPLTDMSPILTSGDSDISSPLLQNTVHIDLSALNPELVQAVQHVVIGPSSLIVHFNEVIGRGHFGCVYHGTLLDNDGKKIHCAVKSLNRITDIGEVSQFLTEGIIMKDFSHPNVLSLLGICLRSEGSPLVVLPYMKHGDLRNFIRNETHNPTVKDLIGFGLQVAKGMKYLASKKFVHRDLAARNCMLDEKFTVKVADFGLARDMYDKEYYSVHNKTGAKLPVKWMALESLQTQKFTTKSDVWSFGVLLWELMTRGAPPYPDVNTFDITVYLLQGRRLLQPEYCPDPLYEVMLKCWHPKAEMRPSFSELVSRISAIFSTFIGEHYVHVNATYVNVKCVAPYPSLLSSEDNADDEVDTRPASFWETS
RON, sequence (Q04912 25-1400): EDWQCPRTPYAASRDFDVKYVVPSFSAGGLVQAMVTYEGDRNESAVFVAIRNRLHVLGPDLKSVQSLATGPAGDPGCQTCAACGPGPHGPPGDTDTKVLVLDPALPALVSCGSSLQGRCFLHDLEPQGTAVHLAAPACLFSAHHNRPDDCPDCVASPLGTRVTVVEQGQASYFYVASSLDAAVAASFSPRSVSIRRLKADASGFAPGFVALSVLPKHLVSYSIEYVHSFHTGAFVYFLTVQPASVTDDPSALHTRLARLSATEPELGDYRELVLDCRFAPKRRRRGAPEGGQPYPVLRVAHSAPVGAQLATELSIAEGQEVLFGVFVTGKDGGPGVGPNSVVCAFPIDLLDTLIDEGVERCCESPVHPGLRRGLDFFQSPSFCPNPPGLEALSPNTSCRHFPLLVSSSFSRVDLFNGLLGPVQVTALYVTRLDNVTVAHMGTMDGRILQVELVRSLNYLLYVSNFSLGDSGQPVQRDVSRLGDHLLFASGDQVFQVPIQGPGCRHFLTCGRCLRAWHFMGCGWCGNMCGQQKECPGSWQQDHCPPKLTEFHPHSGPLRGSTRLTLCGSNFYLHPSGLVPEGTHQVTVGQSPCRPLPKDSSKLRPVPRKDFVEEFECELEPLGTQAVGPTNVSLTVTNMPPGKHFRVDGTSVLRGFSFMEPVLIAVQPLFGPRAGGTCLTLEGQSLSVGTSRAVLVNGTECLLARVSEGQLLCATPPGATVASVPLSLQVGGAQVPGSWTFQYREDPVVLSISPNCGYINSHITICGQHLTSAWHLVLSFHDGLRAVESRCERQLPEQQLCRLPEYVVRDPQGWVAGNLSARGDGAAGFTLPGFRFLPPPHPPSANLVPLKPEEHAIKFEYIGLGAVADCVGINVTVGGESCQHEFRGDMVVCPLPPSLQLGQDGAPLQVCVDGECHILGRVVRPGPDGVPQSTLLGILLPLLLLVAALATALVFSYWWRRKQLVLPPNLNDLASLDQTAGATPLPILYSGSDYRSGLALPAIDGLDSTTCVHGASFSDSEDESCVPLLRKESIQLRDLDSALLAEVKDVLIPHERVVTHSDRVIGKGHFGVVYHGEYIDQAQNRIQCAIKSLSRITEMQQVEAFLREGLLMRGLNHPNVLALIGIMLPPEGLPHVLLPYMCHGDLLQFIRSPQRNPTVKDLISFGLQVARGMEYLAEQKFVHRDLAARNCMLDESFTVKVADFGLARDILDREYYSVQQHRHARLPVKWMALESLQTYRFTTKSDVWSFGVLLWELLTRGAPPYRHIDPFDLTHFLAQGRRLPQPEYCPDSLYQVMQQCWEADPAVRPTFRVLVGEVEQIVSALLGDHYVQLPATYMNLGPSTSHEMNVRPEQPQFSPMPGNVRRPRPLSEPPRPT

On to `CC(Oc1ccc2nc(NC(=O)OCCN3CCOCC3)sc2c1)c1c(Cl)ccc(F)c1Cl` (stereo not drawn) [Example 74], for which the IC50 is 500 to 10000 nM at RON, under 500 nM against MET and 500 to 10000 nM in the assay on MKN45 cells (setting [1]).
Turning to `CCN1CCN(CCNC(=O)Nc2nc3cc(F)c(OC(C)c4c(Cl)ccc(F)c4Cl)cc3s2)CC1` (stereo not drawn) [Example 100, 1-{6-[1-(2,6-dichloro-3-fluorophenyl)ethoxy]-5-fluoro-1,3-benzothiazol-2-yl}-3-[2-(4-ethylpiperazin-1-yl)ethyl]urea], the IC50 at RON, against MET and in the assay with MKN45 cells (setting [1]) was under 500 nM throughout.
As for `CC(Oc1cc2sc(NC(=O)NCCOCC3CC3)nc2cc1F)c1c(Cl)ccc(F)c1Cl` (stereo not drawn) [Example 103, 1-[2-(cyclopropylmethoxy)ethyl]-3-{6-[1-(2,6-dichloro-3-fluorophenyl)ethoxy]-5-fluoro-1,3-benzothiazol-2-yl}urea], the IC50 against RON, against MET and in the assay on MKN45 cells (setting [1]) was 500 to 10000 nM throughout.
As to `COCCCNC(=O)Nc1nc2cc(F)c(OC(C)c3c(Cl)ccc(F)c3Cl)cc2s1` (stereo not drawn) [Example 104, 1-{6-[1-(2,6-dichloro-3-fluorophenyl)ethoxy]-5-fluoro-1,3-benzothiazol-2-yl}-3-(3-methoxypropyl)urea], the IC50 was under 500 nM against RON, under 500 nM against MET and 500 to 10000 nM with MKN45 cells (setting [1]).
In the case of `CC(Oc1cc2sc(NC(=O)NCCCO)nc2cc1F)c1c(Cl)ccc(F)c1Cl` (stereo not drawn) [Example 105, 1-{6-[1-(2,6-dichloro-3-fluorophenyl)ethoxy]-5-fluoro-1,3-benzothiazol-2-yl}-3-(3-hydroxypropyl)urea], the IC50 against RON is under 500 nM; against MET it was under 500 nM; in the assay with MKN45 cells (setting [1]), 500 to 10000 nM.
On to `CC(Oc1cc2sc(NC(=O)NCCN3CCOCC3)nc2cc1Cl)c1c(Cl)ccc(F)c1Cl` (stereo not drawn) [Example 106, 1-{5-chloro-6-[1-(2,6-dichloro-3-fluorophenyl)ethoxy]-1,3-benzothiazol-2-yl}-3-[2-(morpholin-4-yl)ethyl]urea], for which the IC50 on RON, against MET and with MKN45 cells (setting [1]) was 500 to 10000 nM in each case.
As to `CC(Oc1ccc2nc(NC(=O)NCCN3CCN(C)CC3)sc2c1)c1c(F)ccc(Cl)c1Cl` (stereo not drawn) [Example 108, 1-{6-[1-(2,3-dichloro-6-fluorophenyl)ethoxy]-1,3-benzothiazol-2-yl}-3-[2-(4-methylpiperazin-1-yl)ethyl]urea], the values for the concentration for half-maximal inhibition (IC50) at RON, against MET and with MKN45 cells (setting [1]) were under 500 nM, under 500 nM and 500 to 10000 nM, respectively.
With `CC(Oc1ccc2nc(NC(=O)NCCC3CCCN3C)sc2c1)c1c(F)ccc(Cl)c1Cl` (stereo not drawn) [Example 110, 1-{6-[1-(2,3-dichloro-6-fluorophenyl)ethoxy]-1,3-benzothiazol-2-yl}-3-[2-(1-methylpyrrolidin-2-yl)ethyl]urea], the IC50 against RON is under 500 nM; against MET, under 500 nM; in the assay on MKN45 cells (setting [1]), 500 to 10000 nM.
On to `CC(Oc1cc2sc(NC(=O)NCCN3CCOCC3)nc2cc1F)c1c(F)ccc(Cl)c1Cl` (stereo not drawn) [Example 111, 1-{6-[1-(2,3-dichloro-6-fluorophenyl)ethoxy]-5-fluoro-1,3-benzothiazol-2-yl}-3-[2-(morpholin-4-yl)ethyl]urea], for which the IC50 against RON, at MET and in the assay with MKN45 cells (setting [1]) was 500 to 10000 nM in each case.
Consider `CC(Oc1cc2sc(NC(=O)NCCCN3CCCC3=O)nc2cc1F)c1c(F)ccc(Cl)c1Cl` (stereo not drawn) [Example 114, 1-{6-[1-(2,3-dichloro-6-fluorophenyl)ethoxy]-5-fluoro-1,3-benzothiazol-2-yl}-3-[3-(2-oxopyrrolidin-1-yl)propyl]urea], for which the IC50 was under 500 nM against RON, under 500 nM against MET and 500 to 10000 nM in the assay on MKN45 cells (setting [1]).
As to `CC(Oc1cc2sc(NC(=O)NCCN3CCN(C)CC3)nc2cc1F)c1c(F)ccc(Cl)c1Cl` (stereo not drawn) [Example 115, 1-{6-[1-(2,3-dichloro-6-fluorophenyl)ethoxy]-5-fluoro-1,3-benzothiazol-2-yl}-3-[2-(4-methylpiperazin-1-yl)ethyl]urea], the IC50 against RON, on MET and with MKN45 cells (setting [1]) was under 500 nM each time.
Take `CC(Oc1cc2sc(NC(=O)NCCN3CCCC3)nc2cc1F)c1c(F)ccc(Cl)c1Cl` (stereo not drawn) [Example 118, 1-{6-[1-(2,3-dichloro-6-fluorophenyl)ethoxy]-5-fluoro-1,3-benzothiazol-2-yl}-3-[2-(pyrrolidin-1-yl)ethyl]urea]: the IC50 on RON is under 500 nM; against MET, under 500 nM; in the assay with MKN45 cells (setting [1]), 500 to 10000 nM.
For `CC(Oc1ccc2nc(NC(=O)NCCN3CCCC3)sc2c1)c1c(F)ccc(Cl)c1Cl` (stereo not drawn) [Example 120, 1-{6-[1-(2,3-dichloro-6-fluorophenyl)ethoxy]-1,3-benzothiazol-2-yl}-3-[2-(pyrrolidin-1-yl)ethyl]urea], the IC50 on RON, on MET and with MKN45 cells (setting [1]) was under 500 nM throughout.
With `Cc1ccc(F)c(C(C)Oc2ccc3nc(NC(=O)NCCN4CCOCC4)sc3c2)c1F` (stereo not drawn) [Example 123, 1-{6-[1-(2,6-difluoro-3-methylphenyl)ethoxy]-1,3-benzothiazol-2-yl}-3-[2-(morpholin-4-yl)ethyl]urea], the IC50 on RON, against MET and in the assay on MKN45 cells (setting [1]) was 500 to 10000 nM in each case.
`CC(Oc1ccc2nc(NC(=O)NCCN3CCOCC3)sc2c1)c1c(Cl)ccc(Cl)c1Cl` (stereo not drawn) [Example 124, 1-[2-(morpholin-4-yl)ethyl]-3-{6-[1-(2,3,6-trichlorophenyl)ethoxy]-1,3-benzothiazol-2-yl}urea]: the IC50 against RON is 500 to 10000 nM; against MET it was under 500 nM; with MKN45 cells (setting [1]), 500 to 10000 nM.
`CC(Oc1ccc2nc(NC(=O)NCCN3CCCC3)sc2c1)c1c(Cl)ccc(Cl)c1Cl` (stereo not drawn) [Example 125, 1-[2-(pyrrolidin-1-yl)ethyl]-3-{6-[1-(2,3,6-trichlorophenyl)ethoxy]-1,3-benzothiazol-2-yl}urea]: the IC50 against RON, on MET and in the assay on MKN45 cells (setting [1]) was 500 to 10000 nM throughout.
Regarding `CC(Oc1cc2sc(NC(=O)NCCN3CCCC3)nc2cc1F)c1c(Cl)ccc(Cl)c1Cl` (stereo not drawn) [Example 126, 1-{5-fluoro-6-[1-(2,3,6-trichlorophenyl)ethoxy]-1,3-benzothiazol-2-yl}-3-[2-(pyrrolidin-1-yl)ethyl]urea], the IC50 against RON, on MET and in the assay with MKN45 cells (setting [1]) was 500 to 10000 nM in each case.
As to `CNCCCNC(=O)Nc1nc2cc(F)c(OC(C)c3c(Cl)ccc(F)c3Cl)cc2s1` (stereo not drawn) [Example 127, 1-{6-[1-(2,6-dichloro-3-fluorophenyl)ethoxy]-5-fluoro-1,3-benzothiazol-2-yl}-3-[3-(methylamino)propyl]urea], the IC50 against RON is 500 to 10000 nM; against MET, under 500 nM; in the assay with MKN45 cells (setting [1]) it was 500 to 10000 nM.
Turning to `CC(Oc1cc2sc(NC(=O)NCCCN)nc2cc1F)c1c(Cl)ccc(F)c1Cl` (stereo not drawn) [Example 128, 1-(3-aminopropyl)-3-{6-[1-(2,6-dichloro-3-fluorophenyl)ethoxy]-5-fluoro-1,3-benzothiazol-2-yl}urea], the IC50 at RON was 500 to 10000 nM; at MET it was under 500 nM; in the assay with MKN45 cells (setting [1]), 500 to 10000 nM.
`CC(Oc1cc2sc(NC(=O)NCC(=O)N3CCN(C)CC3)nc2cc1F)c1c(Cl)ccc(F)c1Cl` (stereo not drawn) [Example 129, 1-{6-[1-(2,6-dichloro-3-fluorophenyl)ethoxy]-5-fluoro-1,3-benzothiazol-2-yl}-3-[2-(4-methylpiperazin-1-yl)-2-oxoethyl]urea]: the IC50 at RON is 500 to 10000 nM; against MET it was under 500 nM; with MKN45 cells (setting [1]) it was 500 to 10000 nM.
`CC(Oc1cc2sc(NC(=O)NCCN3CCNC(=O)C3)nc2cc1F)c1c(Cl)ccc(F)c1Cl` (stereo not drawn) [Example 130, 1-{6-[1-(2,6-dichloro-3-fluorophenyl)ethoxy]-5-fluoro-1,3-benzothiazol-2-yl}-3-[2-(3-oxopiperazin-1-yl)ethyl]urea]: the “test B” value on RON is recorded as “+=”. Further, the IC50 at MET is under 500 nM; in the assay on MKN45 cells (setting [1]) it was 500 to 10000 nM.
For “{6-[1-(2,6-dichloro-3-fluorophenyl)ethoxy]-5-fluoro-1,3-benzothiazol-2-yl}2-(pyrrolidin-1-yl)ethyl carbamate [Example 73]”, the IC50 at RON, against MET and in the assay with MKN45 cells (cellular proliferation by 14C-thymidine pulse) was 500 to 10000 nM throughout.
